Measurements published in PubChem BioAssay AID2060492 (Molecular Pharmacology Branch, DTP, NCI, 2025).

System: 695427-040-R-J1-PDC complex spheroids, viability percent T/C
Assay: Anticancer human tumor 695427-040-R-J1-PDC patient-derived colon adenocarcinoma cell line growth inhibition [GQUAD]
Settings: for IC50: curve of first compound; for viability, T/C: stronger effect = lower value
In short: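 Viability of tumor cells grown as complex spheroids with endothelial and stromal cells, exposed to drug combinations. Top concentration at or near clinical Cmax (else 10 microM), diluted in half-log increments.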

[1] = second compound 0.0316 µM, first compound 0.0316 µM
[2] = second compound 0.0316 µM, first compound 0.1 µM
[3] = second compound 0.0316 µM, first compound 0.316 µM
[4] = second compound 0.0316 µM, first compound 1 µM
[5] = second compound 0.0316 µM, first compound 3.16 µM
[6] = second compound 0.0316 µM, first compound 10 µM
[7] = second compound 0.1 µM, first compound 0.0316 µM
[8] = second compound 0.1 µM, first compound 0.1 µM
[9] = second compound 0.1 µM, first compound 0.316 µM
[10] = second compound 0.1 µM, first compound 1 µM
[11] = second compound 0.1 µM, first compound 3.16 µM
[12] = second compound 0.1 µM, first compound 10 µM
[13] = second compound 0.316 µM, first compound 0.0316 µM
[14] = second compound 0.316 µM, first compound 0.1 µM
[15] = second compound 0.316 µM, first compound 0.316 µM
[16] = second compound 0.316 µM, first compound 1 µM
[17] = second compound 0.316 µM, first compound 3.16 µM
[18] = second compound 0.316 µM, first compound 10 µM
[19] = second compound 1 µM, first compound 0.0316 µM
[20] = second compound 1 µM, first compound 0.1 µM
[21] = second compound 1 µM, first compound 0.316 µM
[22] = second compound 1 µM, first compound 1 µM
[23] = second compound 1 µM, first compound 3.16 µM
[24] = second compound 1 µM, first compound 10 µM
[25] = second compound 3.16 µM, first compound 0.0316 µM
[26] = second compound 3.16 µM, first compound 0.1 µM
[27] = second compound 3.16 µM, first compound 0.316 µM
[28] = second compound 3.16 µM, first compound 1 µM
[29] = second compound 3.16 µM, first compound 3.16 µM
[30] = second compound 3.16 µM, first compound 10 µM
[31] = second compound 10 µM, first compound 0.0316 µM
[32] = second compound 10 µM, first compound 0.1 µM
[33] = second compound 10 µM, first compound 0.316 µM
[34] = second compound 10 µM, first compound 1 µM
[35] = second compound 10 µM, first compound 3.16 µM
[36] = second compound 10 µM, first compound 10 µM
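Note: spheroids exposed to compounds for seven days before readout.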

C=CCn1c(=O)c2cnc(Nc3ccc(N4CCN(C)CC4)cc3)nc2n1-c1cccc(C(C)(C)O)n1 + Cc1[nH]c2ccc(F)cc2c1-c1nc2c3cccnc3c3ncccc3c2[nH]1
IC50 (second compound 0.0316 µM): 9.44 µM | IC50 (second compound 0.1 µM): 6.67 µM | IC50 (second compound 0.316 µM): 6.48 µM | IC50 (second compound 1 µM): 5.42 µM | IC50 (second compound 3.16 µM): 4.56 µM | IC50 (second compound 10 µM): 4.4 µM | viability, T/C [1]: 102% | viability, T/C [2]: 104% | viability, T/C [3]: 94.3% | viability, T/C [4]: 108% | viability, T/C [5]: 105% | viability, T/C [6]: 47.1% | viability, T/C [7]: 114% | viability, T/C [8]: 99.8% | viability, T/C [9]: 103% | viability, T/C [10]: 113% | viability, T/C [11]: 99.3% | viability, T/C [12]: 23% | viability, T/C [13]: 105% | viability, T/C [14]: 94.1% | viability, T/C [15]: 95.6% | viability, T/C [16]: 97.2% | viability, T/C [17]: 95.6% | viability, T/C [18]: 22.4% | viability, T/C [19]: 81.6% | viability, T/C [20]: 88.2% | viability, T/C [21]: 93.1% | viability, T/C [22]: 89.3% | viability, T/C [23]: 79.8% | viability, T/C [24]: 16% | viability, T/C [25]: 72% | viability, T/C [26]: 72% | viability, T/C [27]: 70.3% | viability, T/C [28]: 64.8% | viability, T/C [29]: 70.7% | viability, T/C [30]: 7.06% | viability, T/C [31]: 75.4% | viability, T/C [32]: 76.8% | viability, T/C [33]: 71.5% | viability, T/C [34]: 71.5% | viability, T/C [35]: 67.8% | viability, T/C [36]: 6.01%

CC(C)(O)C1CCC(Nc2ccc3ncc(-c4cccc(C(F)(F)F)c4)n3n2)CC1 (stereo not drawn) + Cc1[nH]c2ccc(F)cc2c1-c1nc2c3cccnc3c3ncccc3c2[nH]1
IC50 (second compound 0.0316 µM): > 10 µM | IC50 (second compound 0.1 µM): > 10 µM | IC50 (second compound 0.316 µM): > 10 µM | IC50 (second compound 1 µM): > 10 µM | IC50 (second compound 3.16 µM): > 10 µM | IC50 (second compound 10 µM): > 10 µM | viability, T/C [1]: 109% | viability, T/C [2]: 99.1% | viability, T/C [3]: 109% | viability, T/C [4]: 95.6% | viability, T/C [5]: 99.8% | viability, T/C [6]: 82.5% | viability, T/C [7]: 110% | viability, T/C [8]: 100% | viability, T/C [9]: 103% | viability, T/C [10]: 100% | viability, T/C [11]: 100% | viability, T/C [12]: 81.9% | viability, T/C [13]: 101% | viability, T/C [14]: 102% | viability, T/C [15]: 97.6% | viability, T/C [16]: 93.2% | viability, T/C [17]: 99.7% | viability, T/C [18]: 80.1% | viability, T/C [19]: 102% | viability, T/C [20]: 89.4% | viability, T/C [21]: 96.8% | viability, T/C [22]: 87.6% | viability, T/C [23]: 91.4% | viability, T/C [24]: 78% | viability, T/C [25]: 91.6% | viability, T/C [26]: 86.9% | viability, T/C [27]: 76.4% | viability, T/C [28]: 89.5% | viability, T/C [29]: 93.5% | viability, T/C [30]: 62.5% | viability, T/C [31]: 79% | viability, T/C [32]: 68.6% | viability, T/C [33]: 81.7% | viability, T/C [34]: 80.5% | viability, T/C [35]: 80% | viability, T/C [36]: 67.3%

COc1ncnc(C2CC2)c1-c1ncc2cnn(Cc3ccc(-c4nc(C(F)(F)F)cn4C(C)C)cc3)c2n1 + Cc1[nH]c2ccc(F)cc2c1-c1nc2c3cccnc3c3ncccc3c2[nH]1
IC50 (second compound 0.0316 µM): > 10 µM | IC50 (second compound 0.1 µM): > 10 µM | IC50 (second compound 0.316 µM): > 10 µM | IC50 (second compound 1 µM): > 10 µM | IC50 (second compound 3.16 µM): > 10 µM | IC50 (second compound 10 µM): > 10 µM | viability, T/C [1]: 98% | viability, T/C [2]: 96.7% | viability, T/C [3]: 92.9% | viability, T/C [4]: 106% | viability, T/C [5]: 112% | viability, T/C [6]: 70% | viability, T/C [7]: 107% | viability, T/C [8]: 93.9% | viability, T/C [9]: 98.5% | viability, T/C [10]: 98.4% | viability, T/C [11]: 100% | viability, T/C [12]: 71% | viability, T/C [13]: 99.5% | viability, T/C [14]: 91.9% | viability, T/C [15]: 94.6% | viability, T/C [16]: 106% | viability, T/C [17]: 105% | viability, T/C [18]: 65.6% | viability, T/C [19]: 91% | viability, T/C [20]: 86.3% | viability, T/C [21]: 101% | viability, T/C [22]: 96.3% | viability, T/C [23]: 94.1% | viability, T/C [24]: 67.8% | viability, T/C [25]: 76.5% | viability, T/C [26]: 77.5% | viability, T/C [27]: 73.3% | viability, T/C [28]: 80.1% | viability, T/C [29]: 98.4% | viability, T/C [30]: 66.5% | viability, T/C [31]: 82.2% | viability, T/C [32]: 73.5% | viability, T/C [33]: 83.1% | viability, T/C [34]: 81.8% | viability, T/C [35]: 95.4% | viability, T/C [36]: 73.8%

O=C(NO)c1cnc(N2CCN(S(=O)(=O)c3ccc4ccccc4c3)CC2)nc1 + Cc1[nH]c2ccc(F)cc2c1-c1nc2c3cccnc3c3ncccc3c2[nH]1
IC50 (second compound 0.0316 µM): > 10 µM | IC50 (second compound 0.1 µM): > 10 µM | IC50 (second compound 0.316 µM): > 10 µM | IC50 (second compound 1 µM): > 10 µM | IC50 (second compound 3.16 µM): > 10 µM | IC50 (second compound 10 µM): > 10 µM | viability, T/C [1]: 90.4% | viability, T/C [2]: 106% | viability, T/C [3]: 94.3% | viability, T/C [4]: 87.5% | viability, T/C [5]: 78.7% | viability, T/C [6]: 74.7% | viability, T/C [7]: 98.4% | viability, T/C [8]: 91.1% | viability, T/C [9]: 83% | viability, T/C [10]: 87% | viability, T/C [11]: 81.3% | viability, T/C [12]: 68.5% | viability, T/C [13]: 99.1% | viability, T/C [14]: 89.4% | viability, T/C [15]: 81.9% | viability, T/C [16]: 82.6% | viability, T/C [17]: 80.5% | viability, T/C [18]: 65.6% | viability, T/C [19]: 95% | viability, T/C [20]: 86% | viability, T/C [21]: 84.8% | viability, T/C [22]: 82% | viability, T/C [23]: 77.9% | viability, T/C [24]: 61.5% | viability, T/C [25]: 76.5% | viability, T/C [26]: 71.2% | viability, T/C [27]: 71.2% | viability, T/C [28]: 73.5% | viability, T/C [29]: 57.3% | viability, T/C [30]: 54.5% | viability, T/C [31]: 69.6% | viability, T/C [32]: 73.1% | viability, T/C [33]: 73.8% | viability, T/C [34]: 60.5% | viability, T/C [35]: 54.3% | viability, T/C [36]: 50.5%
